From the NIST ThermoML archive (doi:10.1016/j.fluid.2010.10.028)
± gives the expanded uncertainty stated by the source.

Test: xn = mol fraction of the nth substance listed
Settings: Liquid, Vibrating tube method

## CC(C)=O [acetone] + CCCCCCC
347.61 K, 99820 kPa, x1 = 0.7024
  mass density: 766.18 ± 1.5 kg/m3
347.61 K, 104810 kPa, x1 = 0.7024
  mass density: 768.98 ± 1.5 kg/m3
347.61 K, 109800 kPa, x1 = 0.7024
  mass density: 771.73 ± 1.6 kg/m3
347.61 K, 114810 kPa, x1 = 0.7024
  mass density: 774.41 ± 1.6 kg/m3
347.61 K, 119820 kPa, x1 = 0.7024
  mass density: 777.02 ± 1.6 kg/m3
347.61 K, 124830 kPa, x1 = 0.7024
  mass density: 779.56 ± 1.6 kg/m3
347.61 K, 129810 kPa, x1 = 0.7024
  mass density: 782.01 ± 1.6 kg/m3
347.62 K, 1020 kPa, x1 = 0.801
  mass density: 689 ± 1.2 kg/m3
347.62 K, 1220 kPa, x1 = 0.4
  mass density: 705.05 ± 1.2 kg/m3
347.62 K, 1220 kPa, x1 = 0.8992
  mass density: 705.05 ± 1.2 kg/m3
347.62 K, 4860 kPa, x1 = 0.801
  mass density: 695.13 ± 1.2 kg/m3
347.62 K, 5030 kPa, x1 = 0.4
  mass density: 711.05 ± 1.2 kg/m3
347.62 K, 5030 kPa, x1 = 0.8992
  mass density: 711.05 ± 1.2 kg/m3
347.62 K, 9870 kPa, x1 = 0.801
  mass density: 702.45 ± 1.2 kg/m3
347.62 K, 10010 kPa, x1 = 0.4
  mass density: 718.22 ± 1.3 kg/m3
347.62 K, 10010 kPa, x1 = 0.8992
  mass density: 718.22 ± 1.2 kg/m3
347.62 K, 14850 kPa, x1 = 0.801
  mass density: 709.08 ± 1.2 kg/m3
347.62 K, 15000 kPa, x1 = 0.4
  mass density: 724.83 ± 1.3 kg/m3
347.62 K, 15000 kPa, x1 = 0.8992
  mass density: 724.83 ± 1.2 kg/m3
347.62 K, 19850 kPa, x1 = 0.801
  mass density: 715.23 ± 1.2 kg/m3
347.62 K, 24850 kPa, x1 = 0.801
  mass density: 720.94 ± 1.3 kg/m3
347.62 K, 29860 kPa, x1 = 0.801
  mass density: 726.31 ± 1.3 kg/m3
347.62 K, 34950 kPa, x1 = 0.4
  mass density: 746.98 ± 1.3 kg/m3
347.62 K, 34950 kPa, x1 = 0.8992
  mass density: 746.98 ± 1.3 kg/m3
347.62 K, 39850 kPa, x1 = 0.801
  mass density: 736.15 ± 1.3 kg/m3
347.62 K, 39940 kPa, x1 = 0.4
  mass density: 751.76 ± 1.3 kg/m3
347.62 K, 39940 kPa, x1 = 0.8992
  mass density: 751.76 ± 1.3 kg/m3
347.62 K, 44930 kPa, x1 = 0.4
  mass density: 756.3 ± 1.3 kg/m3
347.62 K, 44930 kPa, x1 = 0.8992
  mass density: 756.3 ± 1.3 kg/m3
347.62 K, 49910 kPa, x1 = 0.4
  mass density: 760.61 ± 1.4 kg/m3
347.62 K, 49910 kPa, x1 = 0.8992
  mass density: 760.61 ± 1.3 kg/m3
347.62 K, 54840 kPa, x1 = 0.801
  mass density: 749.08 ± 1.4 kg/m3
347.62 K, 54890 kPa, x1 = 0.4
  mass density: 764.72 ± 1.4 kg/m3
347.62 K, 54890 kPa, x1 = 0.8992
  mass density: 764.72 ± 1.3 kg/m3
347.62 K, 59880 kPa, x1 = 0.4
  mass density: 768.69 ± 1.4 kg/m3
347.62 K, 59880 kPa, x1 = 0.8992
  mass density: 768.69 ± 1.4 kg/m3
347.62 K, 64870 kPa, x1 = 0.4
  mass density: 772.47 ± 1.4 kg/m3
347.62 K, 64870 kPa, x1 = 0.8992
  mass density: 772.47 ± 1.4 kg/m3
347.62 K, 69850 kPa, x1 = 0.4
  mass density: 776.15 ± 1.4 kg/m3
347.62 K, 69850 kPa, x1 = 0.8992
  mass density: 776.15 ± 1.4 kg/m3
347.62 K, 74830 kPa, x1 = 0.4
  mass density: 779.64 ± 1.4 kg/m3
347.62 K, 74830 kPa, x1 = 0.8992
  mass density: 779.64 ± 1.4 kg/m3
347.62 K, 74890 kPa, x1 = 0.801
  mass density: 763.9 ± 1.4 kg/m3
347.62 K, 79820 kPa, x1 = 0.4
  mass density: 783.06 ± 1.4 kg/m3
347.62 K, 79820 kPa, x1 = 0.8992
  mass density: 783.06 ± 1.4 kg/m3
347.62 K, 79870 kPa, x1 = 0.801
  mass density: 767.26 ± 1.4 kg/m3
347.62 K, 84800 kPa, x1 = 0.4
  mass density: 786.42 ± 1.4 kg/m3
347.62 K, 84800 kPa, x1 = 0.8992
  mass density: 786.42 ± 1.4 kg/m3
347.62 K, 89780 kPa, x1 = 0.4
  mass density: 789.6 ± 1.5 kg/m3
347.62 K, 89780 kPa, x1 = 0.8992
  mass density: 789.6 ± 1.4 kg/m3
347.62 K, 94760 kPa, x1 = 0.4
  mass density: 792.68 ± 1.5 kg/m3
347.62 K, 94760 kPa, x1 = 0.8992
  mass density: 792.68 ± 1.4 kg/m3
347.62 K, 99740 kPa, x1 = 0.4
  mass density: 795.68 ± 1.5 kg/m3
347.62 K, 99740 kPa, x1 = 0.8992
  mass density: 795.68 ± 1.5 kg/m3
347.62 K, 99810 kPa, x1 = 0.801
  mass density: 779.62 ± 1.5 kg/m3
347.62 K, 104710 kPa, x1 = 0.4
  mass density: 798.57 ± 1.5 kg/m3
347.62 K, 104710 kPa, x1 = 0.8992
  mass density: 798.57 ± 1.5 kg/m3
347.62 K, 109700 kPa, x1 = 0.4
  mass density: 801.41 ± 1.5 kg/m3
347.62 K, 109700 kPa, x1 = 0.8992
  mass density: 801.41 ± 1.5 kg/m3
347.62 K, 114660 kPa, x1 = 0.4
  mass density: 804.17 ± 1.5 kg/m3
347.62 K, 114660 kPa, x1 = 0.8992
  mass density: 804.17 ± 1.5 kg/m3
347.62 K, 119630 kPa, x1 = 0.4
  mass density: 806.86 ± 1.5 kg/m3
347.62 K, 119630 kPa, x1 = 0.8992
  mass density: 806.86 ± 1.5 kg/m3
347.62 K, 124610 kPa, x1 = 0.4
  mass density: 809.5 ± 1.6 kg/m3
347.62 K, 124610 kPa, x1 = 0.8992
  mass density: 809.5 ± 1.5 kg/m3
347.62 K, 124830 kPa, x1 = 0.801
  mass density: 793.29 ± 1.6 kg/m3
347.62 K, 129570 kPa, x1 = 0.4
  mass density: 812.05 ± 1.6 kg/m3
347.62 K, 129570 kPa, x1 = 0.8992
  mass density: 812.05 ± 1.5 kg/m3
347.63 K, 1030 kPa, x1 = 0.492
  mass density: 657.71 ± 1.2 kg/m3
347.63 K, 1030 kPa, x1 = 0.611
  mass density: 666.96 ± 1.2 kg/m3
347.63 K, 4850 kPa, x1 = 0.492
  mass density: 663.76 ± 1.2 kg/m3
347.63 K, 4870 kPa, x1 = 0.611
  mass density: 673.09 ± 1.2 kg/m3
347.63 K, 9850 kPa, x1 = 0.492
  mass density: 670.93 ± 1.2 kg/m3
347.63 K, 9870 kPa, x1 = 0.611
  mass density: 680.36 ± 1.2 kg/m3
347.63 K, 14850 kPa, x1 = 0.492
  mass density: 677.45 ± 1.2 kg/m3
347.63 K, 19850 kPa, x1 = 0.492
  mass density: 683.45 ± 1.3 kg/m3
347.63 K, 19980 kPa, x1 = 0.4
  mass density: 730.92 ± 1.3 kg/m3
347.63 K, 19980 kPa, x1 = 0.8992
  mass density: 730.92 ± 1.2 kg/m3
347.63 K, 24860 kPa, x1 = 0.492
  mass density: 689 ± 1.3 kg/m3
347.63 K, 24960 kPa, x1 = 0.4
  mass density: 736.6 ± 1.3 kg/m3
347.63 K, 24960 kPa, x1 = 0.8992
  mass density: 736.6 ± 1.3 kg/m3
347.63 K, 29860 kPa, x1 = 0.492
  mass density: 694.2 ± 1.3 kg/m3
347.63 K, 29960 kPa, x1 = 0.4
  mass density: 741.95 ± 1.3 kg/m3
347.63 K, 29960 kPa, x1 = 0.8992
  mass density: 741.95 ± 1.3 kg/m3
347.63 K, 34850 kPa, x1 = 0.492
  mass density: 699.05 ± 1.3 kg/m3
347.63 K, 34850 kPa, x1 = 0.801
  mass density: 731.37 ± 1.3 kg/m3
347.63 K, 39860 kPa, x1 = 0.492
  mass density: 703.65 ± 1.3 kg/m3
347.63 K, 44850 kPa, x1 = 0.801
  mass density: 740.65 ± 1.3 kg/m3
347.63 K, 44870 kPa, x1 = 0.492
  mass density: 708.02 ± 1.3 kg/m3
347.63 K, 49830 kPa, x1 = 0.492
  mass density: 712.11 ± 1.4 kg/m3
347.63 K, 49850 kPa, x1 = 0.801
  mass density: 744.95 ± 1.3 kg/m3
